According to the CATMoS acute toxicity set (Mansouri et al. 2021):

Assay: GHS categories as the set defines them, by LD50: 1 up to 5, 2 up to 50, 3 up to 300, 4 up to 2000, 5 above 2000 mg/kg
Settings: rat; in vivo; po

Work on `CCN(CC)C(=O)C(C)Oc1cccc2ccccc12` (stereo not given) yielded a GHS category of 5.

Molecule `O=C1c2c(Cl)c(Cl)c(Cl)c(Cl)c2C(=O)C1c1ccc2cccc(N3C(=O)c4c(Cl)c(Cl)c(Cl)c(Cl)c4C3=O)c2n1` has a GHS category of 5.

For `CS(=O)(=O)c1ccc(C(=O)C2C(=O)CCCC2=O)c(Cl)c1`, the GHS category was 5.

In the case of `CC1COC(Cn2cncn2)(c2cc3cc(Cl)cc(Cl)c3o2)O1` (stereo not given), the GHS category is reported as 4.

Molecule `C=COC(=O)CCCCC(C)(C)C` has a GHS category of 5.

Molecule `CCOC(=O)C(=O)Nc1cc(SCCOC(=O)C(=O)OCC)nc(C)n1` has a GHS category of 4.

For `CCOC(=O)C(F)(F)F`, the GHS category was 5.

`CCOC(=O)CNc1nc(Cl)nc(NC(C)C)n1` gave a GHS category of 5.

For `CC(C)C1=CC23CCC4C(C)(C(=O)N5CCN(CCO)CC5)CCCC4(C)C2CC1C1C(=O)OC(=O)C13` (stereo not given), the GHS category was 5.

With `CC(O)C1=CCC(C(C)(C)O)CC1O` (stereo not given) the GHS category was 5.

Work on `Cc1cccc(OC(=O)c2cc(Cl)ccc2OC(N)=O)c1` yielded a GHS category of 5.

Work on `CC(C)C1CCCCC1` yielded a GHS category of 5.

For `CC(=O)CC(=O)Nc1cc(C)c(NC(=O)CC(C)=O)cc1C`, the GHS category was 5.

Molecule `CC12CCC(=O)NC1=CCC1C2CCC2(C)C(C(=O)O)CCC12` (stereo not given) has a GHS category of 5.

Work on `CCCCCCCCCCCCSN(C)C(=O)Oc1cccc2c1OC(C)(C)C2` yielded a GHS category of 3.

For `COc1cc([N+](=O)[O-])ccc1N=NC(C(C)=O)C(=O)Nc1ccccc1OC` (stereo not given), the GHS category was 5.

`O=C(Nc1ccc(NC(=O)c2cc3ccccc3c(N=Nc3cc(Cl)ccc3Cl)c2O)cc1)c1cc2ccccc2c(N=Nc2cc(Cl)ccc2Cl)c1O` showed a GHS category of 5.

For `CNC(=O)C(=NNc1ccc(Cl)cc1[N+](=O)[O-])C(C)=O`, the GHS category was 5.

In the case of `CCCCCCCCCCCCCCCCOP(=O)(O)O`, the GHS category is reported as 5.

`CN(C(=O)Cl)c1nnc(C(C)(C)C)s1` showed a GHS category of 4.

Work on `CCCCCCCCCCCCCCCC(=O)Nc1cc(Cl)c(CC)c(Cl)c1O` yielded a GHS category of 5.

In the case of `Cc1ccc(S(=O)(=O)NC(=O)NC(=O)C(Cl)(Cl)Cl)cc1`, the GHS category is reported as 5.

For `C=CCN1CCC23c4c5ccc(O)c4OC2C(=O)CCC3(O)C1C5` (stereo not given), the GHS category was 4.

Molecule `CCCCCC1C(=O)CCC1CC(=O)OC` (stereo not given) has a GHS category of 5.

`COc1cc(C)c(/C=C/C(C)=C/C=C/C(C)=C/C(=O)O)c(C)c1C` showed a GHS category of 5.

With `CC(C)(C)c1cc(Cc2cc(C(C)(C)C)c(O)c(C(C)(C)C)c2)cc(C(C)(C)C)c1O` the GHS category was 5.

For `CC(C)(C)c1cc(Cn2c(=O)n(Cc3cc(C(C)(C)C)c(O)c(C(C)(C)C)c3)c(=O)n(Cc3cc(C(C)(C)C)c(O)c(C(C)(C)C)c3)c2=O)cc(C(C)(C)C)c1O`, the GHS category was 5.

`C=C(CC)CCCC(C)(C)OC(C)=O` showed a GHS category of 5.

Molecule `CC1C2Cc3ccc(O)cc3C1(C)CCN2CCCC(=O)c1ccc(F)cc1` (stereo not given) has a GHS category of 4.

`C/C=C/C/C=C\CCCCCCCCOC(C)=O` gave a GHS category of 4.

`CC(C)OC(=O)C(C)N(C(=O)c1ccccc1)c1ccc(F)c(Cl)c1` (stereo not given) gave a GHS category of 5.

For `CC(C)=CCN(CC=C(C)C)CCC(C#N)c1cccc2ccccc12` (stereo not given), the GHS category was 4.

In the case of `CSc1nc(N)c2c(C)coc2n1`, the GHS category is reported as 5.

With `CNC(=O)Oc1ccc(C)c2sccc12` the GHS category was 3.

In the case of `NC[C@H]1O[C@H](O[C@H]2[C@H](O)[C@@H](O[C@H]3O[C@H](CO)[C@@H](O)[C@H](N)[C@H]3O)[C@H](N)C[C@@H]2N)[C@H](O)[C@@H](O)[C@@H]1O`, the GHS category is reported as 5.

`O=P(O)(O)c1ccccc1` gave a GHS category of 5.

Work on `CCN(C(=O)CCCn1nnnc1C)C1CCCCC1` yielded a GHS category of 4.

In the case of `Nc1ccc(N=Nc2ccc(N=Nc3c(S(=O)(=O)O)cc4cc(S(=O)(=O)O)c(N=Nc5ccc(N=Nc6ccc(N)cc6N)cc5)c(O)c4c3N)cc2)c(N)c1`, the GHS category is reported as 5.

`O=C1CC(N2C(=O)c3ccccc3C2=O)CC(=O)N1CN1CCOCC1` showed a GHS category of 5.

In the case of `COc1ccc2c(c1)CCN(c1ccccc1)C2c1ccc(Cl)cc1` (stereo not given), the GHS category is reported as 4.

For `OCC(O)C1OC(c2ccco2)OC(CO)C1O` (stereo not given), the GHS category was 5.

`CC/C=C\CCC1(C)CCC(=O)O1` (stereo not given) showed a GHS category of 5.

`CN1C(=O)COc2cc(C(=O)C=Cc3ccccc3)ccc21` gave a GHS category of 5.

Work on `Cc1c(CC(=O)O)c2c(n1CC(C)C)CC(C)(C)CC2=O` yielded a GHS category of 5.

`O=C(CC1Sc2ccccc2NC1=O)Nc1cccc(Cl)c1` (stereo not given) showed a GHS category of 5.

`O=C1NC(=O)C(=c2[nH]c(=C3C(=O)NC(=O)NC3=O)c3ccccc23)C(=O)N1` gave a GHS category of 5.

`CC(C)OC(=O)C=Cc1ccccc1` showed a GHS category of 5.

For `CCCc1nc(C)c2c(=O)nc(-c3cc(S(=O)(=O)O)ccc3OCC)[nH]n12`, the GHS category was 5.

Molecule `CC(=O)Nc1ccc(C2=NN(C(C)=O)C(C)Cc3cc4c(cc32)OCO4)cc1` (stereo not given) has a GHS category of 4.

`O=C(Cc1ccccc1)Cc1ccccc1` showed a GHS category of 5.

`CN1C(=O)CCc2c(OCC(O)CN3CCC(Cc4ccccc4)CC3)cccc21` (stereo not given) showed a GHS category of 4.

With `C=CCCCCCCCC(=O)N(C)C` the GHS category was 4.

`COc1ccccc1OC(=O)c1ccccc1Nc1cccc(C)c1C` gave a GHS category of 5.

In the case of `CC(C)(C)c1ccc(OP(=O)(Oc2ccccc2)Oc2ccccc2)cc1`, the GHS category is reported as 5.

With `CCCCOC(=O)CCP1(=O)Oc2ccccc2-c2ccccc21` (stereo not given) the GHS category was 5.
